Measured values reported in US20100234372A1, “SUBSTITUTED 2-MERCAPTOQUINOLINE-3-CARBOXAMIDES AS KCNQ2/3 MODULATORS” (GRUNENTHAL GMBH, priority 2009, published 2010).

Assays:
KCNQ2/3 channels = biological target: T1, KCNQ2/3 channels (Homo sapiens, UniProt O43525+O43526); assay: Fluorescence assay using a voltage-sensitive dye (fluorimetry); type: cell-based; conditions: for EC50: CHO-K1 cells expressing KCNQ2/3 channels; for Emax at 1 µM: 50 μM retigabine = 100%, CHO-K1 cells expressing KCNQ2/3, read-out: Fluorimetry % efficacy at 1 μM (50 μM retigabine = 100%)
T1 construct: expressed in transfected cells; host or cells: CHO-K1 cells
Method in brief: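 CHO-K1 cells expressing human KCNQ2/3 were loaded with membrane-potential dye in ES buffer (pH 7.4) for 45 min, then incubated with compound for 30 min at room temperature. Fluorescence (525/560 nm) before (F1) and at peak after KCl (92 mM final) (F2) yielded agonist activity versus buffer controls; EC50 calculated.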

Male Sprague-Dawley rats = assay: Low-intensity tail flick in rats; type: in vivo; conditions: po, rat, p.o., MPE, read-out: Low-intensity tail flick rat p.o. % effect (dose [mg/kg])
Excerpt: The antinociceptive activity of the test substance against an acute noxic thermal stimulant was examined in the tail-flick test in rats using the method described by D′Amour and Smith (J. Pharm. Exp. Ther. 72, 74 79 (1941)). Male Sprague-Dawley rats weighing between 200 and 250 g were used (breeder: Janvier, Le Genest St. Isle, France). The animals were placed in special test compartments and the base of the tail was exposed to a focused light beam from an analgesia meter (model 2011, Rhema Labortechnik, Hofheim, Germany). 10 animals were used per group. Before administering a substance according to the invention, the tail-flick latency (time from switching on the light beam to the flick of the tail) was measured twice at an interval of five minutes and the average was defined as the control latency time. The intensity of the light beam was chosen so that the control latency time was 7 to 9 seconds.
The measurement of the tail-flick latency was then repeated 10, 20, 30 and 60 minutes after peroral administration of the substance. The antinociceptive action of the test substance was determined as the increase in the tail-flick latency time using the following formula:
where T0=control latency time before administration of the substance, T1=latency time after administration of the substance, T2=maximum exposure time to the light beam (30 seconds), MPE=maximum possible effect.
Analysis of variance (repeated measures ANOVA) was used to test for statistically significant differences between the substance and vehicle group. The significance level was set at ≦0.05.

Compound	EC50 (KCNQ2/3 channels) [nM]	Emax at 1 µM (KCNQ2/3 channels) [%]	inhibition in vivo at 10 mg/kg (Male Sprague-Dawley rats) [%]	inhibition in vivo at 21.5 mg/kg (Male Sprague-Dawley rats; dose 21.5 mg/kg) [%]
CCSc1nc2cc(C(F)(F)F)ccc2c(C)c1C(=O)NCCC(C)C [compound 37]	85	121	0	
CCSc1nc2cc(C(F)(F)F)ccc2c(C)c1C(=O)NCc1ccc(F)cc1 [compound 77]	105	137	37	
CCSc1nc2cc(C(F)(F)F)ccc2c(C)c1C(=O)NCc1cccs1 [compound 30, 2-Ethylsulfanyl-4-methyl-N-(thiophen-2-yl-methyl)-7-(trifluoromethyl)-quinoline-3-carboxamide]	82	141	31	
CCSc1nc2cc(F)c(F)cc2c(C)c1C(=O)NCc1ccc(F)cc1 [compound 109]	187	144	7	
CCSc1nc2cc(C(F)(F)F)ccc2c(C)c1C(=O)NCc1cccnc1 [compound 42]	1690	175		51
CCSc1nc2cc(C(F)(F)F)ccc2c(C)c1C(=O)NCc1ccccc1O [compound 112, 2-Ethylsulfanyl-N-[(2-hydroxyphenyl)-methyl]-4-methyl-7-(trifluoromethyl)-quinoline-3-carboxamide]	130	211	17	
